Earlier results as cited in patent US8609652B2, “Method of administering a methylene blue-curcumin analog for the treatment of alzheimer's disease” (DePuy Synthes Products, LLC, priority 2009, dated 2013).

Tests used:
[1] = tested on: neuronal mitochondrial complex IV; details: cited from earlier work
[2] = tested on: rate of cognitive decline; details: 19 month period; cited from earlier work
tau filaments = details: cited from earlier work
[3] = 10 mg/ml patch, 0.1 mA/cm^2 current density; cited from earlier work
[4] = iontophoresis of 100 mg for 20 minutes; cited from earlier work
beta-amyloid aggregation = details: cited from earlier work

CN(C)c1ccc2nc3ccc(=[N+](C)C)cc-3sc2c1 [methylene blue]
enhancement of cellular oxygen consumption [1]: 37-70%
increase of neuronal mitochondrial complex IV [1]: 30%
decrease in the rate of cognitive decline as compared to controls [2]: 81%
formation of tau filaments (tau filaments): inhibits the formation of tau filaments

CC(C)NCC(O)COc1cccc2ccccc12 (stereo not shown) [propranolol]
Cmax serum concentration [3]: about 200 ng/ml

O=C(OCCOCCO)c1ccccc1Nc1cccc(C(F)(F)F)c1 [etofenamate]
serum concentration [4]: about 200 ng/ml

NCCc1ccc(O)c(O)c1 [dopamine]
potency to inhibit beta-amyloid aggregation relative to curcumin (beta-amyloid aggregation): about 10 times
